63 compounds from a melting point compilation (Tetko et al.; mined from patent text by program, amines drawn as free bases though some values may be those of a salt) can be followed below.

The melting point is the temperature, or range, at which the solid turns liquid.

The compound `O=C(O)Cn1cnc2c(NC3CCCCC3)nc(NCc3ccc(C4CCCCC4)cc3)nc21` yielded a melting point of 172 to 179 °C.

As for `COc1cccc(OC)c1C#CC(F)(F)F`, the melting point lay within 110 to 111 °C. The figure for `O=Cc1c[nH]nc1-c1ccc([N+](=O)[O-])o1` is 184 to 186 °C; for `Cc1cc2c(cc1Br)nc1n2CCC1` it is 167 to 170 °C; for `COc1ccc(CCOc2cncc(Cl)c2)cc1OC` it is 101 to 102 °C.

Compound `O=C(O)c1ccccc1Oc1ccc(C(F)(F)F)cc1NS(=O)(=O)c1ccccc1` registered a melting point of 177 °C. With `COc1cc(C=O)cc(OC)c1Cl` the figure was 112 to 113 °C. For `Nc1cc(N2CCOCC2)cc(C(F)(F)F)c1`, the melting point was 96 to 97 °C. Take `COc1ccc(NC(=O)c2csc(Nc3ccc(C)cn3)n2)cc1OC`: the melting point lay in the range of 212 to 214 °C.

With `CCOC(=O)[C@H](Cc1ccc(-c2c(OC)cc(CO)cc2OC)cc1)NC(=O)c1c(F)cccc1F`, the melting point fell in the range of 70 to 72 °C. With `CS(=O)(=O)c1ccc(/C=C/c2cc(/C=C/c3ccc4cc[nH]c4c3)n[nH]2)cc1` the figure was 260 to 268 °C; with `CCCN(Cc1ccc(-c2ccccc2-c2nnn[nH]2)cc1)c1nc(C)cnc1C(=O)OCC`, 172 to 174 °C. The figure for `COCc1cc(OCc2ccccc2)c2nc(C)n(C)c2c1` is 113 °C. The figure for `COc1nc(C)cnc1N(C(=O)OCC(C)C)S(=O)(=O)c1cccnc1-c1ccc(C)cc1` is 143 to 145 °C; for `CN1C(=O)Cc2cc(Cl)ccc21` it is 118 to 119 °C. Consider `CC(=O)Nc1cc2c(cc1[N+](=O)[O-])[C@@H](NC(C)=O)[C@H](O)C(C)(C)O2` (relative stereo), for which the melting point lay in the range of 256 to 259 °C.

On to `CCN1C(=O)CCc2cnc(Nc3ccccc3)cc21`, for which the melting point lay in the range of 137 to 138 °C. Consider `O=C(NCc1cccnc1)c1[nH]c2ccc(Cl)cc2c1S(=O)(=O)c1ccccc1`, for which the melting point was in the range of 263 to 264 °C.

Compound `COc1cc(Br)c(OC)c(C=O)c1` returned a melting point of 62 to 64 °C. `CCC(=O)N1C(=S)NC(C)=C(C(=O)OC)C1c1cccc([N+](=O)[O-])c1` (stereo not drawn) returned a melting point of 167 to 171 °C. The figure for `O=C1NC(=O)C(Cc2ccc(OCc3nc4ncccc4[nH]3)cc2)S1` (stereo not drawn) is 247 to 248 °C. The figure for `CCOc1nn(-c2ccc(C(F)(F)F)cn2)cc1CCCOc1ccc(CCC(=O)O)cc1O` is 124 to 125 °C; for `CN(C=C(C#N)C#N)c1ccc(O)cc1` it is 187 to 189 °C; for `O=C(O)CCCCCCCCCCC(=O)CCC(=O)O` it is 117 to 118 °C.

Turning to `CS(=O)(=O)Nc1cccc(OCCCN2CCC(OC(c3ccccc3)c3ccccc3)CC2)c1`, the melting point lay in the range of 90 to 95.5 °C. Consider `COc1ccc(S(=O)(=O)C(C)(Cc2ccccc2Br)C(=O)O)cc1` (stereo not drawn), for which the melting point lay in the range of 93 to 96 °C.

In the case of `COC(=O)C(c1ccc(Cl)cc1)c1c2ccccc2nc2ccccc12` (stereo not drawn), the melting point was 192 to 193 °C.

`COCCN1CCN(C(=O)c2ccc3n2Cc2ccccc2N(C(=O)c2ccc(-c4ccccc4C(F)(F)F)c(C)c2)C3)CC1` yielded a melting point of 140 to 144 °C. Compound `O=c1n(CCCC2CCCC2)ccn1-c1ccc(NS(=O)(=O)c2ccc3c(c2)CCC(CNCC(O)c2cccnc2)O3)cc1` (stereo not drawn) gave a melting point of 90 to 92 °C. For `CCOC1=NC(N)=C(C(=O)OC)C(c2ccccc2F)C1C(=O)OC` (stereo not drawn), the melting point was 180 °C. Turning to `O=c1[nH]c2cc(Cl)ccc2c(=O)cc1NCCc1ccccc1`, the melting point is 284 to 287 °C. With `CC=Cn1c(C)c(C)c2cnnc(NCc3ccccc3)c21` the figure was 130 to 131 °C; with `Cc1cc2nc(-c3cc(C(F)(F)F)nn3-c3ccc(S(C)(=O)=O)cc3)sc2cc1F`, 193 to 194 °C; with `O=C(O)c1cn(C2CC2)c2c(F)c(N3C[C@H](CF)[C@H](NC(=O)C(F)(F)F)C3)c(F)c(F)c2c1=O` (relative stereo), 283 to 284 °C.

`C=CCOc1cc(CNc2nc(C)nc(C)c2Cl)ccc1O` returned a melting point of 124 to 126 °C. The figure for `O=[N+]([O-])C(CN(Cc1ccccc1)Cc1ccccc1)=C1NCCCS1` is 108 to 110 °C. The figure for `CCOC(=O)c1c(C)nn(C)c1CCl` is 81 to 83 °C; for `COc1ccc(-n2nc(C#N)cc2-c2ccc(S(C)(=O)=O)cc2)cc1F` it is 192 to 193 °C. The figure for `CC1(O/N=C(\C(=O)O)c2csc(N)n2)CCCC1` is 182 to 183 °C; for `CC(=O)O[C@H]1[C@H](N2CCCNC2=NC#N)c2cc(C#N)ccc2OC1(C)C` (relative stereo) it is 245 to 246 °C. Regarding `CC(C(=O)O)c1ccc(C(=O)c2cccs2)c(Cl)c1` (stereo not drawn), the melting point came to 82.5 °C. The figure for `CCCCC(C(=O)N[C@H]1CN2CCC1CC2)c1ccccc1` (stereo partly drawn) is 136 °C; for `Cc1c(C#N)c(-c2ccc(C#N)cc2)c(C)n1Cc1ccc(Cl)c(C(O)C(F)(F)F)c1` (stereo not drawn) it is 196 to 198 °C.

`Cc1ccc(NC(=O)c2ccc(CN3CCN(C)CC3)c(C(F)(F)F)c2)cc1NC(=O)N(C)c1cc(N)ncn1`: the melting point is 192 to 193 °C.

`COC(=O)C1CCc2cc(OCc3nc(-c4ccccc4)oc3C)ccc2C1O` (stereo not drawn) displayed a melting point of 146 to 147 °C. The figure for `CC(=S)NCC1CN(c2ccc(-c3csc(Cn4cnnn4)n3)c(F)c2)C(=O)O1` (stereo not drawn) is 96 to 98 °C; for `Cc1cc(C)nc(NC(=O)NS(=O)(=O)Nc2nc(C)cc(C)n2)n1` it is 198 °C; for `O=C(O)c1ccc(-c2ccc(Cl)cc2)c(O)c1` it is 199 °C. `N#Cc1cccc(NC(=O)NCc2cccc3c2C(=O)N(C2CCC(=O)NC2=O)C3=O)c1` (stereo not drawn) had a melting point of 228 to 230 °C. The figure for `CN1CCC(c2cccc3ccc(C(=O)NCCCc4ccc(Cl)cc4)cc23)CC1` is 132 to 134 °C; for `C[C@H](Cc1c[nH]c2c(OCc3ccccc3)cccc12)NC(=O)OC(C)(C)C` it is 94 to 95 °C; for `CP(C)(=O)C(CC(=O)O)C(=O)O` (stereo not drawn) it is 174 to 177 °C.

`CCOC(=O)CCc1cc(O)nn1CC`: the melting point fell in the range of 91 to 92 °C. In turn, `CCC(C)n1cc(Cl)nc(N2CCc3cc(OC)cc(C)c32)c1=O` (stereo not drawn) yielded a melting point of 176 to 178 °C.

`O=[N+]([O-])c1ccc(-c2nc(CO)no2)cc1` yielded a melting point of 155 to 156 °C.

As for `Cc1nc(Cl)c2c(c1O)COC2C` (stereo not drawn), the melting point was 248 °C. With `Cc1cc2ncccn2n1` the figure was 54 to 57 °C; with `NC(=O)CCC1CN(c2ccc3c(c2)OCC2CN(C(=O)CO)CCN32)C(=O)O1` (stereo not drawn), 115 to 118 °C; with `Cc1cccc(C(=O)Nc2cccc(C(F)(F)F)c2)c1NCc1ccncc1`, 94 to 98 °C. The figure for `O=C(Cc1ccccc1N1CCCC1)N1C[C@@H]2[C@H](F)CCC(c3ccccc3)(c3ccccc3)[C@@H]2C1` is 170 °C. With `O=C(O)C(=O)c1cc(Cl)c(OCCOc2ccc3ccccc3c2)c(Cl)c1` the figure was 108 to 110 °C; with `O=C(NCCO[N+](=O)[O-])c1cnc(C(F)(F)F)s1`, 76 to 78 °C. `CC(C)(C)c1cc(C(=O)c2cccnc2Cl)cc(C(C)(C)C)c1O` displayed a melting point of 135 to 137 °C.
